Ends that are not written are not given here.
Assays:
[1] = Disposition and nasal absorption of ANA-TA9 in rats (plasma pharmacokinetics after i.v. bolus, i.v. infusion and i.n. administration); type: in vivo, Male Wistar/ST rats; settings: rat
Protocol: For i.n. administration, ANA-TA9 was dissolved in PBS at a concentration of 100 mg/mL. For intravenous (i.v.) administration, the nasal solution was diluted to 10 mg/mL with PBS. For i.v. infusion, ANA-TA9 was dissolved in PBS to a concentration of 12 mg/mL. The rats were anesthetized through i.p. administration of a mixture of medetomidine (0.15 mg/kg body weight), midazolam (2 mg/kg body weight), and butorphanol (2.5 mg/kg body weight). The right femoral artery was cannulated with polyethylene tubing. ANA-TA9 was injected into the left femoral vein of 3 rats at a dose of 2 mg (200 μL of a 10 mg/mL PBS solution). Those 3 rats nasally received the same dose of ANA-TA9 (20 μL of a 100 mg/mL PBS solution) under anesthesia. For nasal administration, a micropipette was used. After i.n. administration, the animals were kept conscious in a rat cage ([…], Tokyo, Japan) throughout the experiment after recovery from anesthesia. The PBS solution of ANA-TA9 (12 mg/mL) was infused intravenously for 10 min at a 25 μL/min flow rate. The infused dose was 3 mg/rat. At the appropriate time intervals after administration, blood samples were taken, heparinized, and immediately cooled down on ice, followed by centrifugation at 15,000 rpm for 5 min to obtain the plasma. The plasma samples were stored at -40 °C until the assay. In the preliminary study, it was confirmed that ANA-TA9 stored at -40 °C is stable for at least 2 weeks. The plasma and brain concentrations of ANA-TA9 were determined by LC/MS, LC-20A, and LCMS-2020 (SHIMADZU, Kyoto, Japan). Briefly, 100 μL of the plasma were mixed with 1000 μL of methanol. […] To the dissected brain tissue, 100 μL of ice-cold purified water were added, and the mixture was homogenized under ice-cold conditions. To the homogenate, 4000 μL of ice-cold methanol were added. […] The residues were reconstituted with 100 μL of the mobile phase of the chromatography. In the preliminary study, it was confirmed that the effect of rapid degradation of ANA-TA9 on the assay could be excluded by the treatment on the blood and brain tissues mentioned above. Chromatographic separation was performed using a C18 analytical column (TSKgel ODS 100V, 3 μm, 2.0 mm × 100 mm; TOSOH, Tokyo, Japan). The mobile phase was acetonitrile/0.1% acetic acid (10/90), and the flow rate was 0.2 mL/min. ANA-TA9 eluting from the column was detected with mass spectrometry under the positive mode. Nitrogen gas was used for nebulization at a flow rate of 1.5 L/min. Other conditions (temperature and voltage) were set as the default. The calibration curves of ANA-TA9 in the plasma and the brain were determined. […] The area under the plasma concentration-time profile (AUC) after i.v. and i.n. administration was obtained based on the linear trapezoidal rules. In the case of the i.n. application, the concentrations of the last three samples were extrapolated to estimate the area after the last sampling time. The dose was divided by the AUC to obtain the clearance. After normalization of the AUC with each dose, the bioavailability was calculated by the division of the normalized i.n. AUC by the normalized AUC after i.v. infusion.

[2] = in vivo; set-up: species or system male Wistar/ST rats; settings: male, Wistar/ST, rat, 2 mg
Protocol: ANA-TA9 diluted in PBS was administered to the left nostril of male Wistar/ST rats (n = 3) at a dose of 2 mg (20 μL of 100 mg/mL). For the comparison, i.v. administration served as the control for i.n. administration. The same dose of ANA-TA9 ([…] of a 10 mg/mL PBS solution) was administered into the left femoral vein of 3 rats. CSF was collected 10 min after i.n. administration by cisternal puncture. An incision was made in the skin over the occipital bone, and the first layer of the muscle was cut. The sharp end of a 25-G needle connected to PE-50 tubing (1 m length) was carefully inserted into the cisterna magna. CSF was withdrawn into the tubing with a disposable syringe. Collection was terminated as soon as blood appeared in the tubing. CSF in the tubing was ejected into a ProteoSave SS 1.5 mL microtube (Sumitomo Bakelite Co., Ltd., Tokyo, Japan) and frozen at −40 °C. The CSF volumes ranged between 100 and 150 μL (n = 6). The plasma and brain concentrations of ANA-TA9 were determined by LC/MS, LC-20A, and LCMS-2020 (SHIMADZU, Kyoto, Japan). Briefly, 100 μL of the plasma were mixed with 1000 μL of methanol. […] To the dissected brain tissue, 100 μL of ice-cold purified water were added, and the mixture was homogenized under ice-cold conditions. To the homogenate, 4000 μL of ice-cold methanol were added. […] The residues were reconstituted with 100 μL of the mobile phase of the chromatography. In the preliminary study, it was confirmed that the effect of rapid degradation of ANA-TA9 on the assay could be excluded by the treatment on the blood and brain tissues mentioned above. Chromatographic separation was performed using a C18 analytical column (TSKgel ODS 100V, 3 μm, 2.0 mm × 100 mm; TOSOH, Tokyo, Japan). The mobile phase was acetonitrile/0.1% acetic acid (10/90), and the flow rate was 0.2 mL/min. ANA-TA9 eluting from the column was detected with mass spectrometry under the positive mode. Nitrogen gas was used for nebulization at a flow rate of 1.5 L/min. […] The calibration curves of ANA-TA9 in the plasma and the brain were determined.

[3] = male, Wistar/ST, in vivo, inhaled or intranasal, 2 mg
[4] = male, Wistar/ST, in vivo, iv, 2 mg
[5] = male, Wistar/ST, in vivo, iv, 3 mg/animal

bioavailability ([1]; male, Wistar/ST, plasma, inhaled or intranasal, i.n. 2 mg, dose-normalized i.n. AUC divided by normalized AUC after i.v. infusion, mean ± S.E. of three experiments, read-out: F (bioavailability), i.n.): 36 ± 4.65%
Cmax [1, 3]: 863 ± 187 ng/mL
Tmax [1, 3]: 1 min
half-life [1, 4]: < 1 min
level at 0.5 min [1, 4]: 575 ± 26 ng/mL
level at 1 min [1, 4]: 111 ± 10 ng/mL
AUC [1, 5]: 215 ng·h/mL
clearance [1, 5]: 260 ± 13.8 mL/min
level at 0.25 h ([1]; male, Wistar/ST, in vivo, iv, 3 mg/rat): 172 ± 121 ng/mL
AUC, i.n. ([1]; i.n. 2 mg (20 μL of 100 mg/mL PBS solution), plasma, trapezoidal with extrapolation, mean ± S.E. of three experiments): 3.10 ± 0.782 µg·min/mL
plasma concentration at 20 min (after end of i.v. infusion) ([1]; in vivo, iv): below the limit of detection
level at 10 min ([2]; inhaled or intranasal, CSF concentration 10 min after i.n. administration): 72 ± 6 ng/mL
level at 10 min ([2]; inhaled or intranasal, plasma concentration 10 min after i.n. administration): 24 ± 5 ng/mL
level at 10 min ([2]; iv, plasma concentration 10 min after i.v. administration): 10 ± 1 ng/mL
Sequence: SKGQAYRMI [ANA-TA9]

— article PMC8538057, “Direct Delivery of ANA-TA9, a Peptide Capable of Aβ Hydrolysis, to the Brain by Intranasal Administration” (Pharmaceutics, 2021)
